#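 Protocol summary: plate cells (96-well), add compound at 5 concentrations, incubate 48 h, interpolate endpoints linearly. Here, GI50 denotes the concentration required for 50% inhibition of growth.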 The source made the active and inactive calls. Cut-off read from the data, not from the text of the source: active = GI50 up to about 1.1 µM and inactive = higher.
# How the values were obtained:
# Assay in all cases: inhibition of tumour cell growth, NCI panel, 48 h
# [1] = tested on: UO-31
# [2] = tested on: Malme-3M
# [3] = tested on: KM12
# [4] = tested on: ACHN
# [5] = tested on: HCT-15
# [6] = tested on: SK-MEL-28
# [7] = tested on: M14
# [8] = tested on: MDA-N
# [9] = tested on: MDA-MB-435
# [10] = tested on: UACC-257
# [11] = tested on: SN12C
# [12] = tested on: SK-MEL-2
# [13] = tested on: SF-268
# [14] = tested on: SF-539
# [15] = tested on: NCI-H23
# [16] = tested on: IGROV-1
# [17] = tested on: LOX IMVI
# [18] = tested on: HT-29
# [19] = tested on: HOP-92
SMILES,GI50 [1],GI50 [2],GI50 [3],GI50 [4],GI50 [5],GI50 [6],GI50 [7],GI50 [8],GI50 [9],GI50 [10],GI50 [11],GI50 [12],GI50 [13],GI50 [14],GI50 [15],GI50 [16],GI50 [17],GI50 [18],GI50 [19]
CC(C)(C)C(=O)N(C(=S)OCc1ccccn1)c1ccccc1,27.8 µM (inactive),13.8 µM (inactive),26.4 µM (inactive),38.5 µM (inactive),30.1 µM,> 100 µM (inactive),39.4 µM (inactive),41.6 µM (inactive),> 100 µM (inactive),> 100 µM (inactive),31.3 µM (inactive),20.6 µM (inactive),36.1 µM (inactive),20.4 µM (inactive),35.3 µM (inactive),19.9 µM (inactive),23.9 µM (inactive),27.6 µM (inactive),
N#C/C(N)=C(C#N)/N=C/Nc1ccc(N)cc1,> 100 µM (inactive),> 100 µM (inactive),> 100 µM (inactive),> 100 µM (inactive),> 100 µM,> 100 µM (inactive),> 100 µM (inactive),> 100 µM (inactive),> 100 µM (inactive),> 100 µM (inactive),> 100 µM (inactive),> 100 µM (inactive),> 100 µM (inactive),> 100 µM (inactive),> 100 µM (inactive),> 100 µM (inactive),> 100 µM (inactive),> 100 µM (inactive),
N#CCCN(CCCCN(CCC#N)C(=O)Nc1ccccc1)C(=O)Nc1ccccc1,> 100 µM (inactive),> 100 µM (inactive),> 100 µM (inactive),> 100 µM (inactive),> 100 µM,> 100 µM (inactive),> 100 µM (inactive),> 100 µM (inactive),> 100 µM (inactive),,> 100 µM (inactive),> 100 µM (inactive),> 100 µM (inactive),,> 100 µM (inactive),> 100 µM (inactive),> 100 µM (inactive),> 100 µM (inactive),
CC(C)(C)c1cc(/C=C2/NC(=O)NC2=O)cc(C(C)(C)C)c1O,,19.5 µM (inactive),13.2 µM (inactive),11.8 µM (inactive),13.2 µM,17.5 µM (inactive),,,17.3 µM (inactive),16 µM (inactive),15.2 µM (inactive),13.8 µM (inactive),14.3 µM (inactive),17 µM (inactive),15 µM (inactive),16 µM (inactive),15.8 µM (inactive),11.7 µM (inactive),14.2 µM (inactive)
COc1ccc(-n2c(C)nc3ccc(NC4OC(COC(C)=O)C(OC(C)=O)C(OC(C)=O)C4OC(C)=O)cc3c2=O)cc1 (stereo not drawn),> 100 µM (inactive),69.3 µM (inactive),> 100 µM (inactive),> 100 µM (inactive),76 µM,34 µM (inactive),,83.4 µM (inactive),> 100 µM (inactive),> 100 µM (inactive),32 µM (inactive),> 100 µM (inactive),> 100 µM (inactive),,60.4 µM (inactive),> 100 µM (inactive),28.5 µM (inactive),53.3 µM (inactive),
COc1ccc(/C=C/C(=O)c2cc(CN(C)C)c(O)c(CN(C)C)c2)cc1,25.2 µM (inactive),25.2 µM (inactive),17.7 µM (inactive),27.9 µM (inactive),40 µM,54.2 µM (inactive),,21.2 µM (inactive),44 µM (inactive),16.5 µM (inactive),21.9 µM (inactive),,75.9 µM (inactive),45.3 µM (inactive),46.9 µM (inactive),37 µM (inactive),14.2 µM (inactive),27.7 µM (inactive),
Fc1ccccc1CN1COc2c(cc(Cl)c3cccnc23)C1,0.653 µM (active),2.28 µM (inactive),2.23 µM (inactive),0.533 µM (active),0.0165 µM,4.25 µM (inactive),2.05 µM (inactive),,2.54 µM (inactive),2.51 µM (inactive),0.215 µM (active),3.93 µM (inactive),2.62 µM (inactive),1.22 µM (inactive),1.6 µM (inactive),4.55 µM (inactive),,7.85 µM (inactive),3.61 µM (inactive)
COc1cc([C@@H]2c3cc4c(cc3[C@@H](Nc3ccc(NC(=O)c5cc(NC(=O)c6cc([N+](=O)[O-])cn6C)cn5C)cc3)[C@H]3COC(=O)[C@H]23)OCO4)cc(OC)c1O,5.22 µM (inactive),4.35 µM (inactive),12.5 µM (inactive),0.2 µM (active),5.73 µM,,1.78 µM (inactive),0.0308 µM (active),,0.687 µM (active),3.73 µM (inactive),> 100 µM (inactive),,0.364 µM (active),0.465 µM (active),0.216 µM (active),0.274 µM (active),0.355 µM (active),0.885 µM (active)
